The record followed here is US20100173930A1, “Certain Chemical Entities, Compositions and Methods” (priority 2006, published 2010).

SMILES strings stand for the structures.

In the test the test system is SKM MYOFIBRIL
Kind of test: SKM myofibril AC1.4 (ATPase, PK/LDH coupled enzyme system). Further: unit not given here. The test is classed as biochemical. The following applies: screen at pCa=6.5.

As for `O=C(O)c1ccc2nc(-c3ccccc3O)c(NCc3ccc(F)cc3)n2c1` [3-{[(4-fluorophenyl)methyl]amino}-2-(2-hydroxyphenyl)-4-hydroimidazo[1,2-a]pyridine-6-carboxylic acid], the “SKM MYOFIBRIL AC1.4 (median)” value was 30.4725. With `Oc1ccc(-c2nc3ccccn3c2NCc2ccccc2)cc1` [4-{3-[benzylamino]-4-hydroimidazo[1,2-a]pyridin-2-yl}phenol] the figure was 27.3665. With `Oc1ccccc1-c1nc2cc(Br)ccn2c1NCc1cccc(Cl)c1` [2-(7-bromo-3-{[(3-chlorophenyl)methyl]amino}-4-hydroimidazo[1,2-a]pyridin-2-yl)phenol] the figure was 8.3071.

`N#Cc1ccn2c(NCc3ccc(F)cc3)c(-c3ccc(O)cc3)nc2c1` [3-{[(4-fluorophenyl)methyl]amino}-2-(4-hydroxyphenyl)-4-hydroimidazo[1,2-a]pyridine-7-carbonitrile]: the “SKM MYOFIBRIL AC1.4 (median)” value turned out to be 19.6705. Then `Oc1ccccc1-c1nc2cccc(Br)n2c1NCc1cccc(Cl)c1` [2-(5-bromo-3-{[(3-chlorophenyl)methyl]amino}-4-hydroimidazo[1,2-a]pyridin-2-yl)phenol], with 12.5914. Regarding `Oc1ccc(-c2nc3cccc(Br)n3c2NC2CCCCC2)cc1` [4-[5-bromo-3-(cyclohexylamino)-4-hydroimidazo[1,2-a]pyridin-2-yl]phenol], the “SKM MYOFIBRIL AC1.4 (median)” value is listed as 21.5453. For `Oc1ccc(-c2nc3ccc(Cl)cn3c2NCc2ccc(F)cc2)cc1` [4-(6-chloro-3-{[(4-fluorophenyl)methyl]amino}-4-hydroimidazo[1,2-a]pyridin-2-yl)phenol], the “SKM MYOFIBRIL AC1.4 (median)” value was 14.9602. With `Cc1ccn2c(NCc3cccc(Cl)c3)c(-c3ccccc3O)nc2c1` [2-(3-{[(3-chlorophenyl)methyl]amino}-7-methyl-4-hydroimidazo[1,2-a]pyridin-2-yl)phenol] the figure was 0.9522; with `N#Cc1ccc2nc(-c3ccc(O)cc3)c(NC3CCCC3)n2c1` [3-(cyclopentylamino)-2-(4-hydroxyphenyl)-4-hydroimidazo[1,2-a]pyridine-6-carbonitrile], 46.9669. For the compound `C[C@H](Nc1c(-c2ccc(O)cc2)nc2ccccn12)c1ccccc1` [4-{3-[((1S)-1-phenylethyl)amino]-4-hydroimidazo[1,2-a]pyridin-2-yl}phenol], the “SKM MYOFIBRIL AC1.4 (median)” value was 23.0212.

For `Oc1ccc(-c2nc3ccccn3c2NC2CCCC2)cc1` [4-[3-(cyclopentylamino)-4-hydroimidazo[1,2-a]pyridin-2-yl]phenol], the “SKM MYOFIBRIL AC1.4 (median)” value was found to be 19.8598. Then `CCC(C)(C)Nc1c(-c2cc3cc(C)ccc3nc2O)nc2ccccn12` [3-{3-[(1,1-dimethylpropyl)amino](4-hydroimidazo[1,2-a]pyridin-2-yl)}-6-methylquinolin-2-ol], with 1.1087; and `Oc1ccccc1-c1nc2ccc(Br)cn2c1NCc1cccc(Cl)c1` [2-(6-bromo-3-{[(3-chlorophenyl)methyl]amino}-4-hydroimidazo[1,2-a]pyridin-2-yl)phenol], with 5.3855.

As for `Oc1ccccc1-c1nc2cnccn2c1NCc1cccs1` [2-{3-[(2-thienylmethyl)amino]-4-hydroimidazo[1,2-a]pyrazin-2-yl}phenol], the “SKM MYOFIBRIL AC1.4 (median)” value came out at 10.6577.

Turning to `Oc1ccccc1-c1nc2ccccn2c1NC1CCCCC1` [2-[3-(cyclohexylamino)-4-hydroimidazo[1,2-a]pyridin-2-yl]phenol], the “SKM MYOFIBRIL AC1.4 (median)” value came out at 8.1939. `CNC(=O)c1ccc2nc(-c3ccccc3O)c(NCc3cccc(Cl)c3)n2c1` [(3-{[(3-chlorophenyl)methyl]amino}-2-(2-hydroxyphenyl)(4-hydroimidazo[1,2-a]pyridin-6-yl))-N-methylcarboxamide]: the “SKM MYOFIBRIL AC1.4 (median)” value is 1.2348. Take `COCCNC(=O)c1ccc2nc(-c3ccccc3O)c(NCc3cccc(Cl)c3)n2c1` [(3-{[(3-chlorophenyl)methyl]amino}-2-(2-hydroxyphenyl)(4-hydroimidazo[1,2-a]pyridin-6-yl))-N-(2-methoxyethyl)carboxamide]: the “SKM MYOFIBRIL AC1.4 (median)” value is reported as 2.0573. As for `Oc1ccc(-c2nc3ccc(F)cn3c2NCc2ccc(F)cc2)cc1` [4-(6-fluoro-3-{[(4-fluorophenyl)methyl]amino}-4-hydroimidazo[1,2-a]pyridin-2-yl)phenol], the “SKM MYOFIBRIL AC1.4 (median)” value is on record as 26.5123. Then `Fc1cccc(-c2nc3ccccn3c2NCc2cccc(Cl)c2)c1` [[(3-chlorophenyl)methyl][2-(3-fluorophenyl)(4-hydroimidazo[1,2-a]pyridin-3-yl)]amine], with 43.8606; and `Cc1ccn2c(NC3CCCCC3)c(-c3ccoc3)nc2c1` [cyclohexyl(2-(3-furyl)-7-methyl(4-hydroimidazo[1,2-a]pyridin-3-yl))amine], with 30.5823.

Regarding `O=C(O)c1ccc2nc(-c3ccccc3O)c(NCc3cccc(Cl)c3)n2c1` [3-{[(3-chlorophenyl)methyl]amino}-2-(2-hydroxyphenyl)-4-hydroimidazo[1,2-a]pyridine-6-carboxylic acid], the “SKM MYOFIBRIL AC1.4 (median)” value worked out at 15.043. Then `Cc1ccn2c(NCc3ccccc3)c(-c3ccccc3O)nc2c1` [2-{7-methyl-3-[benzylamino]-4-hydroimidazo[1,2-a]pyridin-2-yl}phenol], with 2.0618. Then `CN(C)CCNCc1ccc2nc(-c3ccccc3O)c(NCc3cccc(Cl)c3)n2c1` [2-[6-({[2-(dimethylamino)ethyl]amino}methyl)-3-{[(3-chlorophenyl)methyl]amino}-4-hydroimidazo[1,2-a]pyridin-2-yl]phenol], with 6.9925; and `Oc1ccc(-c2nc3ccccn3c2NCc2ccc(F)cc2)cc1` [4-(3-{[(4-fluorophenyl)methyl]amino}-4-hydroimidazo[1,2-a]pyridin-2-yl)phenol], with 40.3674. With `Oc1ccc(-c2nc3cc(Cl)ccn3c2NCc2ccc(F)cc2)cc1` [4-(7-chloro-3-{[(4-fluorophenyl)methyl]amino}-4-hydroimidazo[1,2-a]pyridin-2-yl)phenol] the figure was 10.9866. Take `Oc1ccc(-c2nc3ccccn3c2NC2CCCCC2)cc1` [4-[3-(cyclohexylamino)-4-hydroimidazo[1,2-a]pyridin-2-yl]phenol]: the “SKM MYOFIBRIL AC1.4 (median)” value was found to be 8.513. Turning to `OCc1ccn2c(NCc3cccc(Cl)c3)c(-c3ccccc3O)nc2c1` [2-(3-{[(3-chlorophenyl)methyl]amino}-7-(hydroxymethyl)-4-hydroimidazo[1,2-a]pyridin-2-yl)phenol], the “SKM MYOFIBRIL AC1.4 (median)” value turned out to be 1.9956. Then `Cc1ccc(-c2nc3ccccn3c2NCc2cccc(Cl)c2)cc1` [[(3-chlorophenyl)methyl][2-(4-methylphenyl)(4-hydroimidazo[1,2-a]pyridin-3-yl)]amine], with 17.6147; and `Cc1ccn2c(NCc3ccccc3C)c(-c3ccccc3O)nc2c1` [2-(7-methyl-3-{[(2-methylphenyl)methyl]amino}-4-hydroimidazo[1,2-a]pyridin-2-yl)phenol], with 0.9648; and `Oc1ccc(-c2nc3ccc(-c4ccccc4)cn3c2NCc2ccc(F)cc2)cc1` [4-(3-{[(4-fluorophenyl)methyl]amino}-6-phenyl-4-hydroimidazo[1,2-a]pyridin-2-yl)phenol], with 15.7257. Then `Oc1ccccc1-c1nc2c(Br)cccn2c1NCc1cccc(Cl)c1` [2-(8-bromo-3-{[(3-chlorophenyl)methyl]amino}-4-hydroimidazo[1,2-a]pyridin-2-yl)phenol], with 13.2238; and `Cc1ccn2c(NCc3cccc(Cl)c3)c(-c3ccc(Cl)cc3O)nc2c1` [5-chloro-2-(3-{[(3-chlorophenyl)methyl]amino}-7-methyl(4-hydroimidazo[1,2-a]pyridin-2-yl))phenol], with 20.0045. Then `CC(C)(O)c1ccc2nc(-c3ccccc3O)c(NCc3ccc(F)cc3)n2c1` [2-(3-{[(4-fluorophenyl)methyl]amino}-6-(1-hydroxy-isopropyl)-4-hydroimidazo[1,2-a]pyridin-2-yl)phenol], with 4.1299; and `Cc1ccc(CNc2c(-c3ccccc3O)nc3cc(C)ccn23)cc1` [2-(7-methyl-3-{[(4-methylphenyl)methyl]amino}-4-hydroimidazo[1,2-a]pyridin-2-yl)phenol], with 16.3079. With `CCCCNc1c(-c2ccc(O)cc2)nc2ccccn12` [4-[3-(butylamino)-4-hydroimidazo[1,2-a]pyridin-2-yl]phenol], the “SKM MYOFIBRIL AC1.4 (median)” value came to 27.9936. For the compound `O=C(NCCO)c1ccc2nc(-c3ccccc3O)c(NCc3cccc(Cl)c3)n2c1` [(3-{[(3-chlorophenyl)methyl]amino}-2-(2-hydroxyphenyl)(4-hydroimidazo[1,2-a]pyridin-6-yl))-N-(2-hydroxyethyl)carboxamide], the “SKM MYOFIBRIL AC1.4 (median)” value amounted to 1.3334.

As to `Cc1cn2c(NCc3cccc(Cl)c3)c(-c3ccccc3O)nc2cn1` [2-(3-{[(3-chlorophenyl)methyl]amino}-6-methyl-4-hydroimidazo[1,2-a]pyrazin-2-yl)phenol], the “SKM MYOFIBRIL AC1.4 (median)” value is recorded as 3.6886. Take `Oc1ccc(-c2nc3ccccn3c2NCc2ccccc2Cl)cc1` [4-(3-{[(2-chlorophenyl)methyl]amino}-4-hydroimidazo[1,2-a]pyridin-2-yl)phenol]: the “SKM MYOFIBRIL AC1.4 (median)” value was found to be 17.7003. With `Oc1ccc(-c2nc3ccc(-c4ccccc4)cn3c2NC2CCCC2)cc1` [4-[3-(cyclopentylamino)-6-phenyl-4-hydroimidazo[1,2-a]pyridin-2-yl]phenol] the figure was 22.1213. Then `CCc1ccn2c(NCc3ccc(F)cc3)c(-c3ccccc3O)nc2c1` [2-(7-ethyl-3-{[(4-fluorophenyl)methyl]amino}-4-hydroimidazo[1,2-a]pyridin-2-yl)phenol], with 0.9459; and `Cc1ccn2c(NCc3ccc(F)cn3)c(-c3ccccc3O)nc2c1` [2-(3-{[(5-fluoro(2-pyridyl))methyl]amino}-7-methyl-4-hydroimidazo[1,2-a]pyridin-2-yl)phenol], with 7.3934.
